Data on two compounds can be found in patent US9675552B2, “Use of stabilized granules containing glyceryl trinitrate for arteriogenesis” (G. Pohl-Boskamp GmbH & Co. KG, priority 2012, dated 2017).

Several values for one entry are separate records, joined by “and”; a condition that tells them apart may be missing. Equal values may be shown once.

The assay has as its system left anterior descending coronary artery (LAD) occlusion, Sprague-Dawley rats. The assay can be described thus: Ventricular arrhythmias (Lown classification, VPB-Score) during final permanent LAD occlusion. The format is in vivo, rat.

Consider `CC(=O)Oc1ccccc1C(=O)O` [ASA, acetyl salicylic acid], for which, for the setting “5 DAYS RIP, during FPO”, the “rats with class IIIa arrhythmias (Lown)” value was found to be 16.7% and the “rats with class IVb arrhythmias (Lown)” value was 83.3%.
On to `O=[N+]([O-])OCC(CO[N+](=O)[O-])O[N+](=O)[O-]` [NTG, nitroglycerin], for which, where the note is “rat, in vivo”, the “rats with class 0 arrhythmias (Lown)” value turned out to be 57.1%; the “rats with class IIIa arrhythmias (Lown)” value is reported as 14.3%; the “rats with class IVb arrhythmias (Lown)” value was 85.7% and 42.9%.
